The text below walks through data of patent US12180252B2, “Peptide derived from PEP27 peptide and uses thereof” (priority 2021, dated 2024).

SMILES strings stand for the structures. ≈ marks a conversion by molar mass, not a printed value. Where two headings read alike, the source gives them in different places.

One experiment relates to P. aeruginosa 4007. Description: microbe, parasite or virus in culture. The note with it: Pseudomonas aeruginosa, 4007, 18 h, read-out: Minimal inhibitory concentration. On the procedure:
(§1) In order to evaluate the antimicrobial activity of the peptides prepared by the method of above 1, a minimal inhibitory concentration (MIC) value as the minimum concentration of a peptide, in which cells are not divided, was measured.
(§2) Specifically, the strains shown in Table 3 below were purchased, cultured in a medium having a constitutional composition suitable for each strain to a mid-log phase, and then diluted to a concentration of 2×10^4 cells/100 μl to prepare the product on a micro-titration plate (Nunc, USA). Then, PEP27, PEP27-1, PEP27-2 or PEP27-5 peptide synthesized in the above 1 was added to each well by serial dilution ½ times, followed by incubation at 37° C. for 18 hours.
(§3) Specifically, subject strains were prepared by the method of above 2, and were treated with the antibiotics, that is, meropenem, ceftazidime, ceftriaxone or vancomycin, respectively, followed by determining MICs of the antibiotics.

A further experiment relates to P. aeruginosa 4891. Description: microbe, parasite or virus in culture. The note with it: Pseudomonas aeruginosa, 4891, 18 h, read-out: Minimal inhibitory concentration. On the procedure:
as §1, §2, §3

Another experiment concerns P. aeruginosa ATCC15692. The experiment in a line: microbe, parasite or virus in culture. Conditions: Pseudomonas aeruginosa, ATCC15692, 18 h, read-out: Minimal inhibitory concentration. On the procedure: as §1, §2, §3
For the next experiment, the system named is P. aeruginosa ATCC27853. Description: microbe, parasite or virus in culture. The note with it: Pseudomonas aeruginosa, ATCC27853, 18 h, read-out: Minimal inhibitory concentration. On the procedure:
as §1, §2, §3

The subject of a further experiment is S. aureus ATCC25923. Description: microbe, parasite or virus in culture. The note with it: Staphylococcus aureus, ATCC25923, 18 h, read-out: Minimal inhibitory concentration. On the procedure: as §1, §2, §3
A further experiment has as its system S. aureus ATCC29213. The experiment in a line: microbe, parasite or virus in culture. The note with it: Staphylococcus aureus, ATCC29213, 18 h, read-out: Minimal inhibitory concentration. Here is the method:
as §1, §2, §3

A further experiment relates to S. aureus CCARM3089. The experiment in a line: microbe, parasite or virus in culture. The note with it: Staphylococcus aureus, CCARM3089, 18 h, read-out: Minimal inhibitory concentration. Here is the method: as §1, §2, §3
Another experiment has as its system S. aureus CCARM3090. Description: microbe, parasite or virus in culture. Conditions: Staphylococcus aureus, CCARM3090, 18 h, read-out: Minimal inhibitory concentration. On the procedure:
as §1, §2, §3

In another experiment the test system is S. aureus CCARM3518. The experiment in a line: microbe, parasite or virus in culture. Conditions: Staphylococcus aureus, CCARM3518, 18 h, read-out: Minimal inhibitory concentration. Here is the method: as §1, §2, §3
In the next experiment the test system is S. aureus MW2. The experiment in a line: microbe, parasite or virus in culture. The note with it: Staphylococcus aureus, MW2, 18 h, read-out: Minimal inhibitory concentration. On the procedure:
as §1, §2, §3

For another experiment, the system named is S. aureus USA300. The experiment in a line: microbe, parasite or virus in culture. Conditions: Staphylococcus aureus, USA300, 18 h, read-out: Minimal inhibitory concentration. On the procedure: as §1, §2, §3
For experiment [1], the system named is Staphylococcus aureus MW2. Type of experiment: in vivo, BALB/c mouse. The note with it: for reduction of the number of bacteria in abscess tissue: 0.2 mg/kg alone, injected 2 hours after infection. Here is the method: The efficacy of PEP27-2, which is the peptide having the most excellent antimicrobial activity among the peptides prepared by the method of above 1 was evaluated in vivo using a mouse model.
Specifically, the epidermis on the back side (dorsal side) of 6-7 week old BALB/c mouse was infected with Staphylococcus aureus MW2 having GFP gene inserted therein (S. aureus MW2-GFP, 1×10^9 CFU/10 μl PBS). After 2 hours form infection, PEP27-2 alone (0.2 mg/kg, 50 μl), ceftriaxone alone (0.2 mg/kg, 50 μl) or a combination of the peptide and the antibiotic (0.05 mg/kg PEP27-2+0.1 mg/kg ceftriaxone, 50 μl) was injected. Further, the control mice were injected with the same amount of PBS ([…]) without peptide. On 1st, 2nd, 3rd, 4th, 5th and 7th days after treatment, the shape of abscess was photographed, and surrounding tissues as well as the abscess were gathered. The abscess tissue was homogenized in 500 μl of sterile PBS using a tissue grinder. A serial diluted solution of the homogenate was spread on an agar plate and cultured for 24 hours in order to quantify the Staphylococcus aureus MW2 strain.

Experiment [2] has as its system Staphylococcus aureus MW2-GFP. The format is in vivo, mouse. The note with it: up to 3 days after infection with 1×10^9 CFU. On the procedure:
For real-time tracking the progress of infection with regard to the peptide that has the most excellent antimicrobial activity among the peptides prepared by the method of above 1, fluorescence (GFP)-labeled Staphylococcus aureus MW2 (Staphylococcus aureus MW2-GFP) was used. Fluorescence images were taken from the beginning of infection to 6 hours, 1 day, 2 days and 3 days by means of an FOBI fluorescence imaging system (Neo Science, Suwon, Korea), followed by analysis thereof using live image software.

Experiment [3] deals with Staphylococcus aureus MW2. Description: Hematoxylin and eosin staining of abscess tissue. Type of experiment: in vivo, mouse. Conditions: tissue on day 7, treated 2 hours after infection. An excerpt: Among tissues on the abscess portion and infected portion gathered in the above 13, the tissue on day 7 was fixed with 4% buffered formalin. The infection portion or abscess portion fixed with formalin was embedded in paraffin, while staining a fragment of the cross-section with hematoxylin and eosin.

The subject of experiment [4] is TNF-α, IL-1β, IL-6, iNOS and COX-2. The experiment in a line: Pro-inflammatory cytokine gene expression in abscess tissue, qPCR. The format is in vivo, mouse. The note with it: mRNA relative to β-actin. (In general: In qPCR the cycle at which signal appears reflects the starting amount.)
Protocol: For mice not infected with bacteria, infected mice, and mice subjected to treatment using PEP27-2 alone, ceftriaxone alone or a combination thereof after infection, the expression of inflammatory genes in the mice were measured thus to verify the efficacy of each of PEP27-2 single treatment and combination treatment with antibiotics.
Specifically, total RNA was isolated from wound tissues using Trizol reagent. From the prepared total RNA, cDNA was synthesized using a cDNA synthesis kit. qPCR was implemented using qPCR 2× premix (SYBR Green), followed by determining expression amounts of TNF-α, IL-1β, IL-6, iNOS and COX-2 among inflammatory genes. Expression levels were quantified based on β-actin, and the PCR process was conducted as followed: at 50° C. for 2 minutes and at 95° C. for 10 minutes; 95° C. for 15 seconds, 60° C. for 1 minute, 40 cycles; 95° C. for 15 seconds, 60° C. for 1 minute, 95° C. for 30 seconds, and 60° C. for 15 seconds. The gene expression was calculated after standardization to β-actin level through ΔΔCt method.

On to `CO/N=C(\C(=O)N[C@@H]1C(=O)N2C(C(=O)O)=C(CSc3nc(=O)c(=O)[nH]n3C)CS[C@H]12)c1csc(N)n1` [Ceftriaxone, ceftriaxone], for which the MIC in the experiment on P. aeruginosa 4007 is 16 µM (≈ 8.87 µg/mL); with P. aeruginosa 4891, 64 µM (≈ 35.5 µg/mL); in the experiment with P. aeruginosa ATCC15692 it was 16 µM (≈ 8.87 µg/mL); with P. aeruginosa ATCC27853 it was 8 µM (≈ 4.44 µg/mL); in the experiment with S. aureus ATCC25923, 8 µM (≈ 4.44 µg/mL); with S. aureus ATCC29213 it was 4 µM (≈ 2.22 µg/mL). The MIC in the experiment on S. aureus CCARM3089 was found to be 512 µM (≈ 284 µg/mL); in the experiment with S. aureus CCARM3090 it was 512 µM (≈ 284 µg/mL); with S. aureus CCARM3518, 256 µM (≈ 142 µg/mL); in the experiment with S. aureus MW2, 32 µM (≈ 17.7 µg/mL); in the experiment on S. aureus USA300, 16 µM (≈ 8.87 µg/mL). For the same compound, in experiment [1] (compared with infected group injected only with PBS, up to day 7), the “size of formed abscess” value was “smaller than the experimental group in which only PBS was injected”. For the same compound, the “reduction of the number of bacteria in abscess tissue” value came out at 46.0% in experiment [1] (day 3) and 61.5% in experiment [1] (day 7). Moreover, the “fluorescence signal of S. aureus MW2-GFP at the abscess” value in experiment [2] is “not reduced”. Also, the “number of visible scabs formed on the skin surface and number of bacteria” value in experiment [3] was “markedly reduced”. In experiment [4], the “expression of inflammatory cytokines (TNF-α, IL-1β, IL-6, iNOS, COX-2)” value is given as “suppressed”.
